The values that follow come from US7285536B2, “Anti-cancer therapeutic compounds” (Yeda Research and Development Co., Ltd., priority 2001, dated 2007).

This assay deals with 3LL lewis lung carcinoma, variant D122. In words: 3LL Lewis lung carcinoma (D122) experimental lung metastasis in mice: survival and lung weight. It counts as in vivo, C57BL/6 mice. The method, then: C57BL/6, 12 months old male mice were obtained from the Jackson Laboratory.
Syngeneic, 3LL lewis lung carcinoma, variant D122, was obtained from the Weizmann Institute of Science. This tumor line develops metastases in the lungs after intravenous (iv) inoculation.
Cells were cultured in DMEM medium containing high glucose and supplemented with 10% FCS, glutamine and penicillin.
Cells were incubated 24 hr before inoculation into the mice with the different disaccharides (300 ng/ml) in culture medium. Then, the cells were washed and injected i. v., (500,000 cells per mouse) in 100 μl PBS containing 30 ng of the corresponding disaccharide.
The number of dead mice was counted each day after the inoculation was performed. The mice were sacrificed at day 50 and the weights of their lung were determined.
Each group, injected by one of the disaccharides, contained 16 mice. Control mice received PBS alone. The different disaccharides, were injected to the mice subcutaneously (30 ng per mouse in 0.1 ml of PBS), one day before and one and two days after cell inoculation.

Setting [1] is: day 49 after 3LL injection, 16 mice per group, DS 30 ng per mouse s.c. one day before and one and two days after inoculation.

With `CC1(C)OC(COS(=O)(=O)O)[C@@](C)(COC[C@@]2(C)OC(C(=O)O)=CC(O)C2OS(=O)(=O)O)C(O)C1N` (stereo partly drawn) [DS 8892, α-ΔUA-2S-[1→4]-GlcN-6S], the responders at 30 ng (Mus musculus, Lewis lung carcinoma, sc, 1176 h, day 49 after 3LL injection, [live mice/total mice] × 100, PBS control 6.2) is 25%. Besides, the inhibition in vivo at 30 ng (Mus musculus, Lewis lung carcinoma, sc, 1200 h, day 50 after 3LL injection, [1-(weights of treated group/weights of control group)] × 100, read-out: Decrease (%) of lung weight) was found to be 28.8%. For the same compound, under setting [1], the dead mice is 12 and the live mice came out at 4. Besides, where the note is “day 50 after 3LL injection, PBS 0.92”, the “Weights of lungs ± SD” value is reported as 0.66 ± 0.18 gr. In addition, the “anti-tumor treatment / inhibition of tumor development (in words)” value (mice inoculated i.v. with 3LL cells, treated with DS) was “did not inhibit the tumor development at all”.
